Like-named read-outs stand apart in the source and are kept apart here.
Tests used:
DLD-1 BRCA2−/− cells = assay: Homologous recombination synthetic lethal inhibition of proliferation, DLD-1 BRCA2-/- (Cell Titre Glo 3D); type: cell-based; conditions: Homo sapiens, read-out: POLQ PD Prolif Lumin (converted)
How it was run: (§1)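 Luminescent Cell Titre Glo 3D readout, taken on day 12 for homologous-recombination-deficient DLD-1 BRCA2−/− and day 7 for the wild-type control, after compound refresh on day 6. Compounds spanned 10 μM to 0.51 nM in three-fold steps; IC50 defined as 50% reduction of average maximum signal.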

DLD-1 cells = assay: Inhibition of proliferation, DLD-1 BRCA2 wt control (Cell Titre Glo 3D); type: cell-based; conditions: Homo sapiens, read-out: POLQ PD Prolif Lumin (converted)
How it was run: as §1

[1] = DLD-1, proliferation, luminescence, taken as DLD-1 BRCA2-/-
[2] = DLD-1, proliferation, luminescence, second Prolif column (c6), taken as DLD-1 BRCA2 wt control
[3] = DLD-1, first proliferation column (c5), DLD-1 BRCA2-/-
[4] = DLD-1, second proliferation column (c6), DLD-1 BRCA2 wt control

Row | SMILES | IC50 (DLD-1 cells; [2]) | IC50 (DLD-1 cells; [4]) | IC50 (DLD-1 BRCA2−/− cells; [1]) | IC50 (DLD-1 BRCA2−/− cells; [3])
1 | Cc1ccnc(Cn2c(-c3ccc(C(=O)N4CCC(O)CC4)cc3Cl)nc3c(OC4(C)CC4)ncnc32)c1 [Example T460, (3-chloro-4-(6-(1-methylcyclopropoxy)-9-((4-methylpyridin-2-yl)methyl)-9H-purin-8-yl)phenyl)(4-hydroxypiperidin-1-yl)methanone] | > 10000 nM | – | 3160 nM | –
2 | Cc1ccnc(Cn2c(-c3ccc(CC(=O)N4CC(C)(O)C4)cc3Cl)nc3c(OC4(C)CC4)ncnc32)c1 [Example T470, 2-(3-chloro-4-(6-(1-methylcyclopropoxy)-9-((4-methylpyridin-2-yl)methyl)-9H-purin-8-yl)phenyl)-1-(3-hydroxy-3-methylazetidin-1-yl)ethan-1-one] | > 10000 nM | – | 1000 nM | –
3 | Cc1ccnc(Cn2c(-c3ccc(OC4CN(C(=O)[C@@H](C)O)C4)cc3Cl)nc3c(OC4(C)CC4)ncnc32)c1 [Example T482, (R)-1-(3-(3-chloro-4-(6-(1-methylcyclopropoxy)-9-((4-methylpyridin-2-yl)methyl)-9H-purin-8-yl)phenoxy)azetidin-1-yl)-2-hydroxypropan-1-one] | > 10000 nM | – | 316 nM | –
4 | CC1(Oc2ncnc3c2nc(-c2ccc(OCCN4CCNCC4)cc2Cl)n3Cc2ccc(C#N)cn2)CC1 [Example T484, 6-((8-(2-chloro-4-(2-(piperazin-1-yl)ethoxy)phenyl)-6-(1-methylcyclopropoxy)-9H-purin-9-yl)methyl)nicotinonitrile] | – | > 10000 nM | – | > 7940 nM
5 | Cc1ccnc(Cn2c(-c3ccc(CN4CC5(CCN5)C4)cc3Cl)nc3c(OC4(C)CC4)ncnc32)c1 [Example T489, 8-(4-((1,6-diazaspiro[3.3]heptan-6-yl)methyl)-2-chlorophenyl)-6-(1-methylcyclopropoxy)-9-((4-methylpyridin-2-yl)methyl)-9H-purine] | – | 5010 nM | – | 794 nM
6 | Cc1ccnc(Cn2c(-c3ccc(CC(=O)N4CCNCC4)cc3Cl)nc3c(OC4(C)CC4)ncnc32)c1 [Example T495, 2-(3-chloro-4-(6-(1-methylcyclopropoxy)-9-((4-methylpyridin-2-yl)methyl)-9H-purin-8-yl)phenyl)-1-(piperazin-1-yl)ethan-1-one] | – | > 10000 nM | – | 794 nM
7 | Cc1ccnc(Cn2c(-c3ccc(C(=O)N4CCCNCC4)cc3Cl)nc3c(OC4(C)CC4)ncnc32)c1 [Example T496, (3-chloro-4-(6-(1-methylcyclopropoxy)-9-((4-methylpyridin-2-yl)methyl)-9H-purin-8-yl)phenyl)(1,4-diazepan-1-yl)methanone] | – | > 10000 nM | – | > 10000 nM
8 | CC1(Oc2ncnc3c2nc(-c2ccc(OCCCN4CC[C@@H](O)C4)cc2Cl)n3Cc2cc(Cl)ccn2)CC1 [Example T502, (R)-1-(3-(3-chloro-4-(9-((4-chloropyridin-2-yl)methyl)-6-(1-methylcyclopropoxy)-9H-purin-8-yl)phenoxy)propyl)pyrrolidin-3-ol] | – | > 7940 nM | – | 126 nM
9 | Clc1cc(OCCN2CCNCC2)ccc1-c1nc2c(OC3CCC3)ncnc2n1Cc1ccccc1 [Example T506, 9-benzyl-8-(2-chloro-4-(2-(piperazin-1-yl)ethoxy)phenyl)-6-cyclobutoxy-9H-purine] | – | 2000 nM | – | 501 nM
10 | Cc1ccnc(Cn2c(-c3cccc(OCCCN4CC(O)C4)c3Cl)nc3c(OC4(C)CC4)ncnc32)c1 [Example T514, 1-(3-(2-chloro-3-(6-(1-methylcyclopropoxy)-9-((4-methylpyridin-2-yl)methyl)-9H-purin-8-yl)phenoxy)propyl)azetidin-3-ol] | – | > 10000 nM | – | 398 nM

Continued, in another order:

Row | IC50 (DLD-1 cells; [2]) | IC50 (DLD-1 cells; [4]) | SMILES | IC50 (DLD-1 BRCA2−/− cells; [1]) | IC50 (DLD-1 BRCA2−/− cells; [3])
11 | > 10000 nM | – | Cc1ccnc(Cn2c(-c3ccc(OC4CC5(CNC5)C4)cc3Cl)nc3c(OC4(C)CC4)ncnc32)c1 [Example T457, 8-(4-((2-azaspiro[3.3]heptan-6-yl)oxy)-2-chlorophenyl)-6-(1-methylcyclopropoxy)-9-((4-methylpyridin-2-yl)methyl)-9H-purine] | 316 nM | –
12 | – | > 10000 nM | CC1(Oc2ncnc3c2nc(-c2ccc(OCCN4CCNCC4)cc2Cl)n3Cc2cc(C(F)F)ccn2)CC1 [Example T488, 8-(2-chloro-4-(2-(piperazin-1-yl)ethoxy)phenyl)-9-((4-(difluoromethyl)pyridin-2-yl)methyl)-6-(1-methylcyclopropoxy)-9H-purine] | – | 1000 nM
13 | – | > 7940 nM | CC1(Oc2ncnc3c2nc(-c2ccc(OCCCN4CC[C@H](O)C4)cc2Cl)n3Cc2cc(Cl)ccn2)CC1 [Example T503, (S)-1-(3-(3-chloro-4-(9-((4-chloropyridin-2-yl)methyl)-6-(1-methylcyclopropoxy)-9H-purin-8-yl)phenoxy)propyl)pyrrolidin-3-ol] | – | 100 nM
14 | – | > 10000 nM | Cc1ccnc(Cn2c(-c3ccc(OCCN4CCNCC4)cc3Cl)nc3c(OC4(C)CC4)ncnc32)c1F [Example T504, 8-(2-chloro-4-(2-(piperazin-1-yl)ethoxy)phenyl)-9-((3-fluoro-4-methylpyridin-2-yl)methyl)-6-(1-methylcyclopropoxy)-9H-purine] | – | 2000 nM
15 | – | > 10000 nM | Cc1ccnc(Cn2c(-c3ccc(CCN4CCCC4)cc3Cl)nc3c(OC4(C)CC4)ncnc32)c1 [Example T505, 8-(2-chloro-4-(2-(pyrrolidin-1-yl)ethyl)phenyl)-6-(1-methylcyclopropoxy)-9-((4-methylpyridin-2-yl)methyl)-9H-purine] | – | 158 nM
16 | – | > 10000 nM | Cc1ccnc(Cn2c(-c3ccc(OCCN4CCCC4)cc3Cl)nc3c(OC4(C)CC4)ncnc32)c1 [Example T507, 8-(2-chloro-4-(2-(pyrrolidin-1-yl)ethoxy)phenyl)-6-(1-methylcyclopropoxy)-9-((4-methylpyridin-2-yl)methyl)-9H-purine] | – | 100 nM
17 | – | > 10000 nM | Cc1ccnc(Cn2c(-c3ccc(CN4CCC(O)CC4)cc3Cl)nc3c(OC4(C)CC4)ncnc32)c1 [Example T508, 1-(3-chloro-4-(6-(1-methylcyclopropoxy)-9-((4-methylpyridin-2-yl)methyl)-9H-purin-8-yl)benzyl)piperidin-4-ol] | – | 316 nM
18 | – | > 10000 nM | Cc1ccnc(Cn2c(-c3ccc(CCN4CC[C@@H](O)C4)cc3Cl)nc3c(OC4(C)CC4)ncnc32)c1 [Example T511, (R)-1-(3-chloro-4-(6-(1-methylcyclopropoxy)-9-((4-methylpyridin-2-yl)methyl)-9H-purin-8-yl)phenethyl)pyrrolidin-3-ol] | – | 316 nM
19 | – | > 10000 nM | Cc1ccnc(Cn2c(-c3ccc(OCCN4CC[C@@H](O)C4)cc3Cl)nc3c(OC4(C)CC4)ncnc32)c1 [Example T512, (R)-1-(2-(3-chloro-4-(6-(1-methylcyclopropoxy)-9-((4-methylpyridin-2-yl)methyl)-9H-purin-8-yl)phenoxy)ethyl)pyrrolidin-3-ol] | – | 200 nM
20 | – | > 10000 nM | Cc1ccnc(Cn2c(-c3ccc(OCCCN4CC(O)C4)cc3Cl)nc3c(OC4(C)CC4)ncnc32)c1 [Example T513, 1-(3-(3-chloro-4-(6-(1-methylcyclopropoxy)-9-((4-methylpyridin-2-yl)methyl)-9H-purin-8-yl)phenoxy)propyl)azetidin-3-ol] | – | 316 nM
21 | – | > 10000 nM | C[C@H]1CNCCN1CCOc1ccc(-c2nc3c(OC4(C)CC4)ncnc3n2Cc2cc(Cl)ccn2)c(Cl)c1 [Example T523, (S)-8-(2-chloro-4-(2-(2-methylpiperazin-1-yl)ethoxy)phenyl)-9-((4-chloropyridin-2-yl)methyl)-6-(1-methylcyclopropoxy)-9H-purine] | – | 200 nM

Source: patent publication US20250195530A1, “POLQ INHIBITORS” (ASTRAZENECA AB, priority 2022, published 2025)
